Test results reported in US9732367B2, “Cell lines” (MEDIMMUNE LIMITED, priority 2012, dated 2017).
Square brackets hold non-standard residues; d marks the D form. Peptide text beside a SMILES is read from it. * marks the point of attachment. Dolaproine = CO[C@@H]([C@@H]1CCCN1)[C@@H](C)C(=O)O; Dil = CC[C@H](C)[C@H](NC)[C@@H](CC(=O)O)OC; NMe2Val = CC(C)[C@@H](C(=O)*)N(C)C

What was measured:
SKBR3 = assay: In vitro cytotoxicity assay, SKBR3; format: cell-based
Protocol: (§1) The Her2 over expressing cell lines, SKBR3 and SKOV3 were compared to PC3, a cell line that expresses very low level of Her2.
(§2) The ADC's generated as described above were tested for cytotoxic activity in SKOV3 and a PC3 tumor cell lines which are standard target cells for testing the activity of anti Her2 antibodies and ADC cell lines. SKOV3 cells express high levels of Her2, while PC3 cells express Her2 at low level. […] The drug treated cells are incubated at 37 C for 3 days in 100 ul medium. 20 ul of Alamar Blue (Life Technologies) is added to each well and the cells incubated for 16-24 hours and an OD 450 nm determined for each well. The cytotoxic activity of the conjugates was calculated as the concentration of ADC to kill 50% of the tumor cells in vitro as described in Table 8.

HCC1954 = assay: In vitro cytotoxicity assay, HCC1954; format: cell-based
Protocol: (§3) The ADC's generated as described above were tested for cytotoxic activity in SKOV3 and HCC1954 and PC3 tumor cell lines which are standard target cells for testing the activity of anti Her2 antibodies and ADC cell lines. SKOV3 and HCC1954 express high levels of Her2, while PC3 expresses Her2 at low level: the cytotoxic activity was calculated as the concentration of ADC to kill 50% of the tumor cells in vitro as described in Table 5.
as §2

SKOV3 = assay: In vitro cytotoxicity assay, SKOV3; format: cell-based, human
Protocol: as §3, §1, §2

BT474 = assay: In vitro cytotoxicity assay, BT474; format: cell-based; conditions: Table 8, 3 days, Alamar Blue
[1] = Table 5, positional 4D5-AF ADCs

CC[C@H](C)[C@@H]([C@@H](CC(=O)N1CCC[C@H]1[C@H](OC)[C@@H](C)C(=O)N[C@@H](Cc1ccccc1)C(=O)O)OC)N(C)C(=O)[C@@H](NC(=O)[C@H](C(C)C)N(C)C)C(C)C [AF, Auristatin F] (NMe2Val-V[Dil][Dolaproine]F-OH)
EC50 (SKBR3; Table 6): 71 nM
EC50 (SKBR3; Table 8, 3 days, Alamar Blue): 33.3 nM
EC50 (HCC1954; [1]): 18.8 nM
EC50 (HCC1954; Table 8, 3 days, Alamar Blue): 12.9 nM
EC50 (SKOV3; [1]): 69.4 nM
EC50 (SKOV3; Table 6): 287 nM
EC50 (SKOV3; Table 8, 3 days, Alamar Blue): 23.5 nM
EC50 (BT474): 58.8 nM
